From patent US12304910B2, “Janus kinase (JAK) family inhibitor, preparation of same, and applications thereof” (JIANGSU VCARE PHARMATECH CO., LTD., priority 2019, dated 2025)
Blank lines part the entries; values can stand above or below the molecule they belong to.

Legend:
JAK2 = JAK2 (Homo sapiens, UniProt O60674); test: Kinase activity test (γ33P-ATP isotopic method), JAK2; type: biochemical; conditions: 33P-ATP 10 μM, 2 h reaction
Procedure: (§1) This experiment adopted a γ^33p-ATP isotopic test method to test the inhibitory effect of a compound on kinases JAK1, JAK2, JAK3 and TYK2, and obtained a half inhibitory concentration IC50 of the compound for inhibiting activity of the kinase.
(§2) 20 mM 4-hydroxyethylpiperazine ethanesulfonic acid buffer (Hepes, pH 7.5), 10 mM magnesium chloride (MgCl2), 1 mM ethylene glycol diethyl ether diamine tetraacetic acid (EGTA), 0.02% dodecyl polyethylene glycol ether (Brij35), 0.02 mg/ml bovine serum albumin (BSA), 0.1 mM sodium vanadate (Na3VO4), 2 mM dithiothreitol (DTT), and 1% dimethylsulfoxide (DMSO).
(§3) A compound is dissolved with 100% DMSO to a specific concentration, and then subjected to gradient dilution by an automatic sampling device to obtain the samples to be tested with different concentrations (DMSO solutions).
(§4) 3.1 diluting the reaction substrate with the basic reaction buffer;
(§5) 3.2 adding the kinase into the substrate solution, and gently mixing well;
(§6) 3.3 adding, by the automatic sampling system, the 100% DMSO diluted compounds with different concentrations into the kinase solution, and incubating for 20 min at room temperature; and
(§7) 3.4 adding ^33p-ATP (10 μM, 10 μCi/μl) at room temperature to initiate the kinase reaction for a duration of 2 h.
(§8) The unreacted ATP and the reaction-generated […] in the reaction were removed by an ion exchange filtering system, and then the amount of radioactivity of ^33p isotope in the substrate was detected.
(§9) According to the amount of radioactivity, the kinase activities in the systems added with the inhibitors of different concentrations were calculated, to obtain the inhibitors' effects of the compounds of different concentrations on the kinase activity; and fitting was performed with graphpad prism to obtain the inhibitory IC50 values of the compounds.

[1] = tested on: DSS induced mouse ulcerative colitis model; test: Efficacy test in DSS induced mouse ulcerative colitis model; type: in vivo; conditions: for DAI score on day 8: once a day, mouse DSS model, DAI range 0-4
Excerpt: Mice of 6-7 weeks old were randomly grouped, 6 mice per group. Purified water was provided ad libitum to the mice in a negative control group, and a 2% solution of dextran sulfate sodium (DSS) was provided ad libitum to the mice in other groups, for 7 consecutive days. During the modeling, medication was given according to the groups, once a day for 7 days (the treatment groups and the mouse numbers can be adjusted according to the specific situation). Within 8-10 days later, the DSS-containing water was replaced with purified water, provided ad libitum to the mice. The normal administration continued for 3 days.
From the first day of administration, the general conditions such as metal state, eating, drinking and activities of the mice were respectively observed every day, the mice were weighed every day, and the animal stools were collected, evaluated for their traits and subjected to the occult blood test. The disease activity index (DAI) of experimental animals within 1-10 days were comprehensively assessed.
Scoring was performed according to the above-mentioned standards. The disease activity index (DAI) of each mouse was obtained by summing the scores of weight loss, stool trait and occult blood condition, to evaluate the disease activity. DAI=(score of weight loss+score of stool trait+score of bloody stool)/3, ranging from 0-4.
The experimental data was processed statistically, and the data are all expressed as mean±SD or mean±SME. The SPSS13.0 software was used for statistical analysis, and the differences among the groups were compared with t test (equal variance) or t′ test (unequal variance).

TYK2 = TYK2 (Homo sapiens, UniProt P29597); test: Kinase activity test (γ33P-ATP isotopic method), TYK2; type: biochemical; conditions: 33P-ATP 10 μM, 2 h reaction
Procedure: as §1, §2, §3, §4, §5, §6, §7, §8, §9

[2] = Liver microsome test (metabolic stability); type: in vitro ADME, human; conditions: for Remaining % (60 min) / half-life at 1 μmol/L / microsomal CLint at 1 μmol/L: human liver microsomes 0.5 mg/mL protein, compound 1 μmol/L, 37° C.; for half-life at 1 μmol/L / microsomal CLint at 1 μmol/L: pH 7.4; for microsomal CLint at 1 μmol/L: read-out: Clint (μL/min/mg protein)
Procedure: In an incubation system with a total volume of 250 μL, an incubation solution of hum an liver microsomes containing 0.5 mg/mL protein was formulated with a 50 mmol/L PBS buffer (pH=7.4). Before the start of incubation, 2.5 μL of a 100 μmol/L compound to be tested was mixed with 197.5 μL of the above incubation buffer, pre-incubated for 5 min in a 37° C. water bath, and then added with 50 μL of a reducing coenzyme II solution (5 mmol/L) that was likewise pre-incubated for 5 min to start a reaction (in the reaction system, the protein content of liver microsomes from various species was 0.5 g/L, and the final concentration of the compound to be tested was 1 μmol/L), incubated in a 37° C. water bath with shaking, and taken out at 0, 5, 15, 30, and 60 min respectively. 600 μL of a methanol solution of mixed positive and negative internal standards with internal standards Terfenadine (positive ion internal standard, 25 ng/mL) and Tolbutamide (negative ion internal standard, 50 ng/mL) was immediately added to terminate the reaction. The incubation solution after termination was shaken for 2 min and centrifuged (4° C., 16000 r/min) for 10 min, and the supernatant was taken for LC-MS/MS detection to quantitatively analyze the remaining amount of the parent drug. (DMSO=0.1%).
The concentration of the compound at 0 mi incubation was regarded as 100%, and the concentrations at other incubation time points were converted into the remaining percentages. The natural logarithm of the remaining percentage at each time point was linearly regressed against the incubation time, and the slope k was calculated. According to the formula T1/2=−0.693/k, the in vitro half-life was calculated. Clearance in liver microsomes (CLint (μL/min/mg protein)=Ln (2)*1000/T1/2 (min/Protein Conc (mg/ml)).

JAK3 = target: T1, JAK3 (Homo sapiens, UniProt P52333); test: Kinase activity test (γ33P-ATP isotopic method), JAK3; type: biochemical; conditions: 33P-ATP 10 μM, 2 h reaction
T1 sequence (P52333 1-1124): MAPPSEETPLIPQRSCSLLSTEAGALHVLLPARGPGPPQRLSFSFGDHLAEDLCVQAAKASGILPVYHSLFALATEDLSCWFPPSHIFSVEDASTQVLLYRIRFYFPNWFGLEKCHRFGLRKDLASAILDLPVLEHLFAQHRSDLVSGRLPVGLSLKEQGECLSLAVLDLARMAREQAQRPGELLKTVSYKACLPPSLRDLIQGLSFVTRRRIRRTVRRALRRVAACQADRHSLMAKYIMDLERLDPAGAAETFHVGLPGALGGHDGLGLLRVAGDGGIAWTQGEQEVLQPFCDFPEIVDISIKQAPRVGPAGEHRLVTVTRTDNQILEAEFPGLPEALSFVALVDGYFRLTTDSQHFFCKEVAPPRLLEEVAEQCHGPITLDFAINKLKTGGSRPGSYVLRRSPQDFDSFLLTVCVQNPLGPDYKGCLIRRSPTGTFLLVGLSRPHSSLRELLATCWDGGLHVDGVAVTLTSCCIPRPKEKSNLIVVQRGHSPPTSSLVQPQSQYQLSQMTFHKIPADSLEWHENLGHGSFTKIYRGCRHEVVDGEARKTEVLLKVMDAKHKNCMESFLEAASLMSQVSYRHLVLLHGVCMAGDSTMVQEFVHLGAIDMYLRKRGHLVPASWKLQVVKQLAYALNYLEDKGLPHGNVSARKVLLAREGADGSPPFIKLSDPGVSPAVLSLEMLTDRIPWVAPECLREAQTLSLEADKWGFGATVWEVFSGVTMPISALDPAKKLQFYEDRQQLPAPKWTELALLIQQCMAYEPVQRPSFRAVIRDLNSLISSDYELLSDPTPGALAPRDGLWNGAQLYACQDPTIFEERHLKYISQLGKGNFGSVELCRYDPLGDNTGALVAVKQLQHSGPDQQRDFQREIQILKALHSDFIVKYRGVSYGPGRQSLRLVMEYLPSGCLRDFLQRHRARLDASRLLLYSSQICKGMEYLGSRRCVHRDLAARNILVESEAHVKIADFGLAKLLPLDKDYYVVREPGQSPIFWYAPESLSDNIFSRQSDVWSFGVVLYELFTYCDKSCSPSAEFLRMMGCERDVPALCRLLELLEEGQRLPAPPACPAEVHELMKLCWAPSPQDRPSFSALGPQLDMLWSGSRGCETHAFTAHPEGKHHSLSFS
Procedure: as §1, §2, §3, §4, §5, §6, §7, §8, §9

JAK1 = JAK1 (Homo sapiens, UniProt P23458); test: Kinase activity test (γ33P-ATP isotopic method), JAK1; type: biochemical; conditions: for IC50: 33P-ATP 10 μM, 2 h reaction; for activity in inhibiting the JAK1 kinase compared with Tofacitinib (in words): conclusion from Table 1
Procedure: as §1, §2, §3, §4, §5, §6, §7, §8, §9

Sequence of JAK1 (P23458 whole entry): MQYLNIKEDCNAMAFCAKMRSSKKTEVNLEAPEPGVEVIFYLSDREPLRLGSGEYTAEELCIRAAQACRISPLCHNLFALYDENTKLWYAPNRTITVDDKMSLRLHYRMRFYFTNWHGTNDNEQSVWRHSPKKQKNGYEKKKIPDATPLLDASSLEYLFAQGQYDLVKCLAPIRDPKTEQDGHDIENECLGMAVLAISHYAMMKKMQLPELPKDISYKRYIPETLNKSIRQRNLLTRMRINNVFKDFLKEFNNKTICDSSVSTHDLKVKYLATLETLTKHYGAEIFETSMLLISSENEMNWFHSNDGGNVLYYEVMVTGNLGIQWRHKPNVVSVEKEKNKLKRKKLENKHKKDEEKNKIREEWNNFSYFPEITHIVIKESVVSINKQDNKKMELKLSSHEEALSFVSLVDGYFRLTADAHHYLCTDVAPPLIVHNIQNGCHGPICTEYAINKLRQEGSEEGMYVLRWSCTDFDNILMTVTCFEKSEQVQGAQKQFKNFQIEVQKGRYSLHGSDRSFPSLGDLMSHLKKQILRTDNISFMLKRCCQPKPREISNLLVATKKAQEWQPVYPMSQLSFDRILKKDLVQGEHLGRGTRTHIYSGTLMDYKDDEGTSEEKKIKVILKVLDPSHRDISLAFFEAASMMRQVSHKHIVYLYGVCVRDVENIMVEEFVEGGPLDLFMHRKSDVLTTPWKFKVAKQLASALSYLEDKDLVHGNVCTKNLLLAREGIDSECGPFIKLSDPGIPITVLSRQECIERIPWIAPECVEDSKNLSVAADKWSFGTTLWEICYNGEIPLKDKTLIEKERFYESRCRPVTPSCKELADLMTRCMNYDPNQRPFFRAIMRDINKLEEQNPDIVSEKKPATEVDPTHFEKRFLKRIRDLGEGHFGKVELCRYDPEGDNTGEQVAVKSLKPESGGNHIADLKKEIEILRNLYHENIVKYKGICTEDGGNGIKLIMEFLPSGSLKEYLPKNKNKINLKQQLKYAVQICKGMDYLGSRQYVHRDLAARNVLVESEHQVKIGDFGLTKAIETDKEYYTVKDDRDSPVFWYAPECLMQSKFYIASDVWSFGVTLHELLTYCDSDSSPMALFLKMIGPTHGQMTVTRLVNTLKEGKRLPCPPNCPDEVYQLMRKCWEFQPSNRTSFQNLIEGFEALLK
Sequence of JAK2 (O60674 whole entry): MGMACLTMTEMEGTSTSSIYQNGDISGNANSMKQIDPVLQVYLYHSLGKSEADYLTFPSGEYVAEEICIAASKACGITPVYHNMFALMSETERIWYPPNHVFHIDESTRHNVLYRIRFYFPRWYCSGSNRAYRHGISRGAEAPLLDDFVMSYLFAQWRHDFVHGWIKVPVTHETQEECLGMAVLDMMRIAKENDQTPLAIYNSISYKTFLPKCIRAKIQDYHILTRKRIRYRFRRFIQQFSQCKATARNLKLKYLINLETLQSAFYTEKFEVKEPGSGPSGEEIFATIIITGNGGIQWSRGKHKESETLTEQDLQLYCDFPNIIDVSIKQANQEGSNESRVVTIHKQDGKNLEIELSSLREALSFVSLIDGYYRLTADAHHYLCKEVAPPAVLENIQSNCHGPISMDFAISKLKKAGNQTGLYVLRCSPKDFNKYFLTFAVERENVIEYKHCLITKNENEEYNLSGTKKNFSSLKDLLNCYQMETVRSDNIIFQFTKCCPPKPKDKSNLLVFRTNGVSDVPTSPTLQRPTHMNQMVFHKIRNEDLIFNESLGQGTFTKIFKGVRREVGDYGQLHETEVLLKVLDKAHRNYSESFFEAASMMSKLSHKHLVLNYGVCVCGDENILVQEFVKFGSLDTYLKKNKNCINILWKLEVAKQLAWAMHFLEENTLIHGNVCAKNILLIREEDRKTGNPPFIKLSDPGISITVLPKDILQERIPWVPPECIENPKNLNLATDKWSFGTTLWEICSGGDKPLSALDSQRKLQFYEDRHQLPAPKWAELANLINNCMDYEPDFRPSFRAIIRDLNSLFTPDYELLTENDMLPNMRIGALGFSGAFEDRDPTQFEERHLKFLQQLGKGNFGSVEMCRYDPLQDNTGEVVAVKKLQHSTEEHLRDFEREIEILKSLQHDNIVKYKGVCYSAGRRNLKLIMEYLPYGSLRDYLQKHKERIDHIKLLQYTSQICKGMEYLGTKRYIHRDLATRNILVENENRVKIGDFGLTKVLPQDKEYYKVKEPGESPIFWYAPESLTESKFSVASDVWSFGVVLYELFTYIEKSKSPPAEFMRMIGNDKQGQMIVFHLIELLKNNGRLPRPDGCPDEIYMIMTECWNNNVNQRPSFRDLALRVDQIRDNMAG
Sequence of TYK2 (P29597 whole entry): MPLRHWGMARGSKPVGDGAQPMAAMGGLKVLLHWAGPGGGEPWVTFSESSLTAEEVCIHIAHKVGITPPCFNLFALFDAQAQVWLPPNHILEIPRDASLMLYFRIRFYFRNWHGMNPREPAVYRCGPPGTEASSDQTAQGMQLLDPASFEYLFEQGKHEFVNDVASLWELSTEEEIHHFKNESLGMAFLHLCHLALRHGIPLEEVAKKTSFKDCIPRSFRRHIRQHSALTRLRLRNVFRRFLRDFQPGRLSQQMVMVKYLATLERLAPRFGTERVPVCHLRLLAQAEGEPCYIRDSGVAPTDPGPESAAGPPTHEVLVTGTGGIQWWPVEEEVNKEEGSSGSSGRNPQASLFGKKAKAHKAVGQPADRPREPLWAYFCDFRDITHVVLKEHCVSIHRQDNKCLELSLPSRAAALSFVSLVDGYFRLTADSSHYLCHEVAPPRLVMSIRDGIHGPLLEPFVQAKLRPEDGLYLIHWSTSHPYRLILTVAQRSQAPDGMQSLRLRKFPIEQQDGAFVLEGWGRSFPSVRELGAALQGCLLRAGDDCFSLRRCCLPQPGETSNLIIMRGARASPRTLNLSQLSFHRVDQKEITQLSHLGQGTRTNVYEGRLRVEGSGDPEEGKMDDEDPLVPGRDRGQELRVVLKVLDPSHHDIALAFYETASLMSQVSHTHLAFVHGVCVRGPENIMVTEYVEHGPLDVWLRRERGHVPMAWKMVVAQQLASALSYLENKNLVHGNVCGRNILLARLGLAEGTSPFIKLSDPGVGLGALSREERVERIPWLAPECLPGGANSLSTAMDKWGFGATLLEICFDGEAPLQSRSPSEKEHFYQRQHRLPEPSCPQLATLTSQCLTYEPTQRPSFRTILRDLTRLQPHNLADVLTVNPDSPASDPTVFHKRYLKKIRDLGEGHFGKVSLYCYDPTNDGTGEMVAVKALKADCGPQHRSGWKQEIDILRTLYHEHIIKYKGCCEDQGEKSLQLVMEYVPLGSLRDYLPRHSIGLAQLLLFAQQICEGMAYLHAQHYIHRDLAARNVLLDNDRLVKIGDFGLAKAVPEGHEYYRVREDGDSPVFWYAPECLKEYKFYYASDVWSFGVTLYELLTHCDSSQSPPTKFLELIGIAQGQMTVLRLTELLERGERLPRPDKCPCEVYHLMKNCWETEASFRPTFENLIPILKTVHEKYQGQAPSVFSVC

Compound: NC(=O)c1cnc2[nH]ccc2c1NN1CCC[C@H](C(=O)NCC(F)(F)F)C1 [Example 1, (S)-4-(3-(2,2,2-trifluoroethylcarbamoyl)piperidine-1-amino)-1H-7-azaindole-5-carboxamide]
IC50 (JAK2): 2.26 nM
DAI score on day 8 ([1]; 5 mg/kg group): 2.8
DAI score on day 8 ([1]; 15 mg/kg group): 2
effect on DSS induced enteritis in mice (in words) ([1]; relatively low dose): significant effect in inhibiting the DSS induced enteritis in mice
IC50 (TYK2): 3.28 nM
Remaining % (60 min) [2]: 59.0%
metabolic stability in liver microsomes (in words) ([2]; human liver microsomes, conclusion from Table 2): excellent metabolic activity in liver
half-life at 1 μmol/L [2]: 1.36 h
microsomal CLint at 1 μmol/L [2]: 17 µL/min/mg
IC50 (JAK3): 2.7 nM
IC50 (JAK1): 0.29 nM
activity in inhibiting the JAK1 kinase compared with Tofacitinib (in words) (JAK1): higher activity in inhibiting the JAK1 kinase than the positive drug control Tofacitinib

Compound: CC(C)(C)OC(=O)N1CC2CN(Nc3c(C(N)=O)cnc4[nH]ccc34)CC2C1 (stereo not shown) [Example 12]
IC50 (JAK2): 16.7 nM
IC50 (TYK2): 19 nM
IC50 (JAK3): 5.97 nM
IC50 (JAK1): 1.1 nM

Compound: C[C@@H]1CCN(C(=O)CC#N)C[C@@H]1N(C)c1ncnc2[nH]ccc12 [Tofacitinib, reference compound]
DAI score on day 8 ([1]; 5 mg/kg group): 3.5
Remaining % (60 min) [2]: 80.7%
half-life at 1 μmol/L [2]: 3.3 h
microsomal CLint at 1 μmol/L [2]: 7 µL/min/mg

Compound: N#CCNC(=O)[C@H]1CCCN(Nc2c(C(N)=O)cnc3[nH]ccc23)C1 [Example 7]
IC50 (JAK2): 1.32 nM
IC50 (TYK2): 1.98 nM
IC50 (JAK3): 0.71 nM
IC50 (JAK1): 0.39 nM
activity in inhibiting the JAK1 kinase compared with Tofacitinib (in words) (JAK1): higher activity in inhibiting the JAK1 kinase than the positive drug control Tofacitinib

Further lines, with some results ahead:

IC50 (JAK2): 54.8 nM
IC50 (TYK2): 34.7 nM
IC50 (JAK3): 15.9 nM
IC50 (JAK1): 1.19 nM
Compound: CCCNC(=O)[C@H]1CCCN(Nc2c(C(N)=O)cnc3[nH]ccc23)C1 [Example 5, (S)-4-(3-(n-propylcarbamoyl)piperidine-1-amino)-1H-7-azaindole-5-carboxamide]

IC50 (JAK2): 11.6 nM
IC50 (TYK2): 9.93 nM
IC50 (JAK3): 8.69 nM
IC50 (JAK1): 0.41 nM
Compound: NC(=O)c1cnc2[nH]ccc2c1NN1CCC[C@@H](C(=O)NCC(F)(F)F)C1 [Example 3, (R)-4-(3-(2,2,2-trifluoroethylcarbamoyl)piperidine-1-amino)-1H-7-azaindole-5-carboxamide]
activity in inhibiting the JAK1 kinase compared with Tofacitinib (in words) (JAK1): higher activity in inhibiting the JAK1 kinase than the positive drug control Tofacitinib
